Columns and labels:
[1] = system: wet algae; assay: Algal cell lysis with ionic liquid and oil extraction / transesterification; assay type: cell-based; conditions: for recovered oil (% of the total algal oil content): wet algae 5 g, water content 85%, cell lysis 80° C. 1 h, hexane added
[2] = in water; cited from earlier work

Compound	recovered oil (% of the total algal oil content) [1]	pKa water [2]	Oil extraction (%) with respect the total algal oil content ([1]; Example 9, procedure of Example 1, 100° C. (10 atm for TMG and DBU), IL/Algae/MeOH 5:1:1.5 (5:1 for [BMIM]Cl))
1-ethyl-3-methylimidazolium ethyl sulfate [[EMIM] Ethyl Sulfate]	50-52%		
C1CN2CCN1CC2 [Dabco, triethylenediamine]		8.8	
CN1CCCC1 [N-methylpyrrolidine]		10.5	
CN(C)C(=N)N(C)C [Tetramethylguanidine (TMG), 1,1,3,3-tetramethylguanidine]		15.2	
CC(=O)[O-].CCCCn1cc[n+](C)c1 [[BMIM] Acetate, 1-butyl-3-methylimidazolium acetate]	40%		
CCCC[n+]1ccn(C)c1.[Cl-] [[BMIM]Cl, 1-methyl-3-butylimidazolium chloride]	40-60%		40-60%

Source: patent publication US10035971B2, “Method for treating algae” (STAMICARBON B.V., priority 2014, dated 2018)
